US20260286396A1, “AXL KNOCK OUT CAR T CELLS AND METHODS FOR USE THEREOF” (priority 2023, published 2026)

Test system: CART19 cells
Test: RNA sequencing of CART19 cells with Ingenuity pathway analysis (pathways, upstream regulators)
Type: cell-based, human
Experimental: CART19 cells were isolated using CD4 and CD8 microbeads to […] the JeKo-1 target cells; this isolation step was performed twice to eliminate the possible contamination of JeKo-1 cells. RNA was isolated from the CART19 cells using QIAGEN RNEASY® Plus Mini Kit. RNA was further treated with DNase I (QIAGEN) and purified using RNA Clean & Concentrator (Zymo Research). […] The fastq files were viewed in FastQC to check for quality (Cox et al., Mol Ther., 29 (4): 1529-1540, 2020). After verifying the lack of adapter sequences with FastQC, Cutadapt (Martin, EMBnet, 17:10-12, 2011) was used to filter for reads greater than 32 base pairs. Output files were re-checked for quality using FastQC. The latest human reference genome (GRCh38.p13) was downloaded from NCBI. Genome index files were generated using STAR (Cox et al. 2020, supra, and Dobin et al., Bioinformatics, 29:15-21, 2012). Paired end reads from fastq files were mapped to the genome for each condition. HTSeq was used to generate expression counts for each gene (Cox et al. 2020, supra; and Putri et al., Bioinformatics, 38:2943-2945, 2022). […] The disruption efficiency of the CRISPR/Cas9 GM-CSF knockout was determined using targeted sequencing through PCR and TIDE analysis (software available at tide.nki.nl) as described elsewhere (Sakemura et al. 2021, supra).
RNA sequencing of CART19 cells was then performed. […] Data were analyzed with the use of QIAGEN Ingenuity Pathway Analysis (IPA) (digitalinsights.qiagen.com/IPA; Krämer et al., Bioinformatics 30 (4): 523-530, 2014).

[1] = Upstream Regulator KLF11, 30 nM, 24 hours vs vehicle
[2] = Upstream Regulator LAMA4, 30 nM, 24 hours vs vehicle
[3] = Upstream Regulator LARP1, flag bias, 30 nM, 24 hours vs vehicle
[4] = Upstream Regulator MFSD2A, 30 nM, 24 hours vs vehicle
[5] = Upstream Regulator MSC, 30 nM, 24 hours vs vehicle
[6] = Upstream Regulator MYC, 30 nM, 24 hours vs vehicle
[7] = Upstream Regulator MYCN, 30 nM, 24 hours vs vehicle
[8] = Upstream Regulator NELFB, 30 nM, 24 hours vs vehicle
[9] = Upstream Regulator NFAT5, 30 nM, 24 hours vs vehicle
[10] = Upstream Regulator NR3C1, 30 nM, 24 hours vs vehicle
[11] = Upstream Regulator NT5E, 30 nM, 24 hours vs vehicle
[12] = Upstream Regulator NUPR1, 30 nM, 24 hours vs vehicle
[13] = Upstream Regulator PAX5, 30 nM, 24 hours vs vehicle
[14] = Upstream Regulator PDGFB, 30 nM, 24 hours vs vehicle
[15] = Upstream Regulator REL, 30 nM, 24 hours vs vehicle
[16] = Upstream Regulator RXRB, 30 nM, 24 hours vs vehicle
[17] = Upstream Regulator SATB1, 30 nM, 24 hours vs vehicle
[18] = Upstream Regulator SHC1, 30 nM, 24 hours vs vehicle
[19] = Upstream Regulator SMAD3, 30 nM, 24 hours vs vehicle
[20] = Upstream Regulator STAT3, 30 nM, 24 hours vs vehicle
[21] = Upstream Regulator STAT6, 30 nM, 24 hours vs vehicle
[22] = Upstream Regulator STIM1, 30 nM, 24 hours vs vehicle
[23] = Upstream Regulator SYK, 30 nM, 24 hours vs vehicle
[24] = Upstream Regulator TAFAZZIN, 30 nM, 24 hours vs vehicle
[25] = Upstream Regulator TCF3, 30 nM, 24 hours vs vehicle
[26] = Upstream Regulator TCF12, 30 nM, 24 hours vs vehicle
[27] = Upstream Regulator TCR, 30 nM, 24 hours vs vehicle
[28] = Upstream Regulator TFRC, 30 nM, 24 hours vs vehicle
[29] = Upstream Regulator TGF BETA, 30 nM, 24 hours vs vehicle
[30] = Upstream Regulator TGFB2, 30 nM, 24 hours vs vehicle
[31] = Upstream Regulator TIGIT, 30 nM, 24 hours vs vehicle
[32] = Upstream Regulator TLR9, 30 nM, 24 hours vs vehicle
[33] = Upstream Regulator TNF, 30 nM, 24 hours vs vehicle
[34] = Upstream Regulator USP38, 30 nM, 24 hours vs vehicle
[35] = Upstream Regulator ZBTB16, 30 nM, 24 hours vs vehicle
[36] = upstream regulator ACE, CART19 stimulated with JeKo-1, 30 nM TP-0903 vs vehicle, 24 hours
[37] = upstream regulator AMBRA1, CART19 stimulated with JeKo-1, 30 nM TP-0903 vs vehicle, 24 hours
[38] = upstream regulator CCR2, CART19 stimulated with JeKo-1, 30 nM TP-0903 vs vehicle, 24 hours
[39] = upstream regulator CIP2A, CART19 stimulated with JeKo-1, 30 nM TP-0903 vs vehicle, 24 hours
[40] = upstream regulator ERBB3, CART19 stimulated with JeKo-1, 30 nM TP-0903 vs vehicle, 24 hours
[41] = upstream regulator HGF, CART19 stimulated with JeKo-1, 30 nM TP-0903 vs vehicle, 24 hours
[42] = upstream regulator IKBKG, CART19 stimulated with JeKo-1, 30 nM TP-0903 vs vehicle, 24 hours
[43] = upstream regulator IL7, CART19 stimulated with JeKo-1, 30 nM TP-0903 vs vehicle, 24 hours
[44] = upstream regulator PPARD, CART19 stimulated with JeKo-1, 30 nM TP-0903 vs vehicle, 24 hours
[45] = upstream regulator SMAD4, CART19 stimulated with JeKo-1, 30 nM TP-0903 vs vehicle, 24 hours

CN1CCN(Cc2ccc(Nc3ncc(Cl)c(Nc4ccccc4S(=O)(=O)N(C)C)n3)cc2)CC1 [TP-0903, Dubermatinib]
Expr Log Ratio [1]: −0.037
Predicted Activation State [1]: inhibited
Activation Z-Score [2]: 2.985
Expr Log Ratio [2]: −1.478
Predicted Activation State [2]: activated
Expr Log Ratio (Upstream Regulator LARP1, 30 nM, 24 hours vs vehicle): −0.22
Activation Z-Score [3]: 3.461
Predicted Activation State [3]: activated
Expr Log Ratio (Upstream Regulator MED12, 30 nM, 24 hours vs vehicle): 0.075
Activation Z-Score (Upstream Regulator MEK, 30 nM, 24 hours vs vehicle): −1.682
Activation Z-Score [4]: 2.219
Expr Log Ratio [4]: −0.204
Predicted Activation State [4]: activated
Activation Z-Score (Upstream Regulator MIR-34A-5P (AND OTHER MIRNAS W/SEED GGCAGUG), flag bias, 30 nM, 24 hours vs vehicle): 0.22
Activation Z-Score (Upstream Regulator MIR-155-5P (MIRNAS W/SEED UAAUGCU), flag bias, 30 nM, 24 hours vs vehicle): 1.95
Activation Z-Score (Upstream Regulator MIR-155, 30 nM, 24 hours vs vehicle): 0.713
Activation Z-Score [5]: 0.707
Expr Log Ratio [5]: 0.103
Activation Z-Score [6]: −1.663
Expr Log Ratio [6]: −0.584
Activation Z-Score [7]: −2.592
Expr Log Ratio [7]: −0.217
Predicted Activation State [7]: inhibited
Activation Z-Score [8]: −1
Expr Log Ratio [8]: 0.032
Activation Z-Score [9]: −0.466
Expr Log Ratio [9]: −0.006
Activation Z-Score [10]: 0.182
Expr Log Ratio [10]: 0.097
Activation Z-Score [11]: 0.447
Expr Log Ratio [11]: 0.513
Activation Z-Score [12]: 0.396
Expr Log Ratio [12]: 1.017
Activation Z-Score [13]: −1.01
Expr Log Ratio [13]: −0.607
Activation Z-Score (Upstream Regulator PDGF BB, 30 nM, 24 hours vs vehicle): −0.275
Activation Z-Score [14]: −1.513
Expr Log Ratio [14]: 0.018
Activation Z-Score (Upstream Regulator PKA, 30 nM, 24 hours vs vehicle): −1.077
Activation Z-Score (Upstream Regulator PKC(S), 30 nM, 24 hours vs vehicle): 1.03
Expr Log Ratio (Upstream Regulator POU2F2, 30 nM, 24 hours vs vehicle): −0.143
Activation Z-Score (Upstream Regulator POU2F2, flag bias, 30 nM, 24 hours vs vehicle): −1
Activation Z-Score [15]: −0.988
Expr Log Ratio [15]: 0.266
Activation Z-Score [16]: 1.155
Expr Log Ratio [16]: −0.076
Activation Z-Score [17]: −1.359
Expr Log Ratio [17]: −0.104
Activation Z-Score [18]: 0.963
Expr Log Ratio [18]: 0.076
Activation Z-Score [19]: −1.454
Expr Log Ratio [19]: 0.337
Activation Z-Score [20]: −1.117
Expr Log Ratio [20]: 0.116
Activation Z-Score [21]: −2.16
Expr Log Ratio [21]: −0.088
Predicted Activation State [21]: inhibited
Activation Z-Score [22]: −3
Expr Log Ratio [22]: 0.123
Predicted Activation State [22]: inhibited
Activation Z-Score [23]: −1.203
Expr Log Ratio [23]: −0.298
Activation Z-Score [24]: 0
Expr Log Ratio [24]: −0.111
Activation Z-Score [25]: −0.213
Expr Log Ratio [25]: −0.061
Activation Z-Score [26]: −0.207
Expr Log Ratio [26]: 0.077
Activation Z-Score [27]: −2.683
Predicted Activation State [27]: inhibited
Activation Z-Score [28]: 2.335
Expr Log Ratio [28]: −0.051
Predicted Activation State [28]: activated
Activation Z-Score [29]: −2.031
Predicted Activation State [29]: inhibited
Activation Z-Score [30]: −1.591
Expr Log Ratio [30]: −1.361
Activation Z-Score [31]: −1.982
Expr Log Ratio [31]: 0.2
Activation Z-Score [32]: −0.796
Expr Log Ratio [32]: −0.186
Activation Z-Score [33]: −2.543
Predicted Activation State [33]: inhibited
Expr Log Ratio (Upstream Regulator TP53, 30 nM, 24 hours vs vehicle): 0.089
Activation Z-Score [34]: −1.213
Expr Log Ratio [34]: −0.109
Activation Z-Score [35]: −0.683
Expr Log Ratio [35]: −0.061
Activation Z-Score [36]: 1
Expr Log Ratio [36]: −1.023
Activation Z-Score [37]: 1.808
Expr Log Ratio [37]: −0.003
Activation Z-Score [38]: 0.314
Expr Log Ratio [38]: −1.545
Activation Z-Score [39]: 0
Expr Log Ratio [39]: 0.131
Activation Z-Score [40]: −1
Expr Log Ratio [40]: −1.599
Expr Log Ratio (upstream regulator GPD1, CART19 stimulated with JeKo-1, 30 nM TP-0903 vs vehicle, 24 hours): 0.348
Activation Z-Score [41]: −0.973
Expr Log Ratio [41]: −0.131
Activation Z-Score [42]: −0.788
Expr Log Ratio [42]: 0.136
Activation Z-Score [43]: −0.288
Expr Log Ratio [43]: 0.684
Activation Z-Score (upstream regulator LET-7A-5P (AND OTHER MIRNAS W/SEED GAGGUAG), flag bias, CART19 stimulated with JeKo-1, 30 nM TP-0903 vs vehicle, 24 hours): 1.25
Activation Z-Score (upstream regulator NFKB (COMPLEX), CART19 stimulated with JeKo-1, 30 nM TP-0903 vs vehicle, 24 hours): −1.386
Activation Z-Score (upstream regulator PI3K (COMPLEX), CART19 stimulated with JeKo-1, 30 nM TP-0903 vs vehicle, 24 hours): −1.952
Activation Z-Score [44]: −0.089
Expr Log Ratio [44]: −0.036
Activation Z-Score (upstream regulator SCGB1A1, CART19 stimulated with JeKo-1, 30 nM TP-0903 vs vehicle, 24 hours): 1.993
Activation Z-Score [45]: −0.02
Expr Log Ratio [45]: −0.097
Activation Z-Score (upstream regulator TFPI2, CART19 stimulated with JeKo-1, 30 nM TP-0903 vs vehicle, 24 hours): 1.131
